Data reported in paper PMC12741935 (Alzheimer's & Dementia, 2025).

Assays:
[1] = tested on: 14 DIV mouse hippocampal neurons; assay: oAβ-induced spine loss: drebrin-positive spine density in cultured hippocampal neurons; assay type: cell-based; conditions: oAβ 1 µM + inhibitor 24 h vs oAβ alone; NVS-PAK1-1 10 nM, NVS-PAK1-C 10 nM, AZ13705339 1 nM, G5555 5 nM
Protocol: (§1) For in vitro study, all animal procedures were conducted in accordance with the National Institutes of Health Guide for the Care and Use of Laboratory Animals using protocols approved by the institutional animal care and use committee at Stanford University. Timed pregnant C57BL/6 mice (Strain code: 027) were purchased from Charles River Laboratories and delivered on embryonic day 15 (E15), after which E16 embryos were used for primary hippocampal cultures. Primary embryonic mouse hippocampal neuron cultures were plated on poly‐D‐lysine‐coated (10 µg/mL) glass cover slips at 40,000 to 50,000 cells per well in 12‐well plates (Corning Life Sciences). Cells were seeded in plating medium DMEM/F12 supplemented with 10% fetal bovine serum and 1 × penicillin/streptomycin (PS) for 2 hours. Medium was then changed to B‐27 Plus Neuronal Culture System (Invitrogen) supplemented with PS, and 2 mM glutamine.
(§2) Immunofluorescence was performed as described previously.[24] Briefly, cultured hippocampal neurons were fixed in 4% formaldehyde for 20 minutes, permeabilized for 6 minutes in 80% ice‐cold methanol, and incubated with primary antibodies at 4°C overnight. Primary antibodies used were rabbit polyclonal MAP2 antibody for labeling dendrites (1:1000, #8707, Cell Signaling) and mouse monoclonal drebrin antibody for labeling dendritic spines (1:300; Cat#ADI‐NBA‐110, Enzo). Secondary antibodies consisted of donkey antirabbit or antimouse conjugated with either FITC or Cy3 (1:400; Jackson ImmunoResearch Laboratories, Inc.).
(§3) The cultured hippocampal neurons were imaged using an oil‐based 63x objective on a Leica Stellaris 5 confocal microscope. The cell nucleus was stained with DAPI and imaged at a wavelength of 405 nm (blue channel), the dendrites stained by MAP2 were imaged at 488 nm wavelength (green channel), and the drebrin‐stained spines were imaged at a wavelength of 561 nm (red channel). Z‐stack images of neurons were acquired at a 1024 × 1024 resolution, a zoom factor of 1.0, and a z‐step size of 0.5 µm. The number of steps for every z‐stack picture of a neuron were determined by the size of the neuron in the z‐plane, to ensure that the entirety of a neuron is captured in the picture. The areas to be imaged were selected systematically, starting from the top‐left region to proceeding to the bottom‐right region of a coverslip. For imaging, preference was given to field of views containing isolated neurons versus clustered neurons.
For quantification of drebrin‐positive spines in vitro, the images were analyzed using Imaris 9.3 software. Each image consisted of one major neuron and the “filaments” option in Imaris was applied to manually trace along the dendrites of every neuron, by placing starting and seed points at the beginning and along the length of the dendrites, respectively. The largest dendrite diameter (i.e., Starting Point) was set at 9.00 µm threshold while the thinnest dendrite diameter (i.e., Seed Point) was set at 1.00 µm threshold. After manually tracing the dendrites, the spines along the dendrites were assessed using the automatic “spine detection” function in Imaris. […] The spine density (number of spines/dendrite length) was then calculated for each neuron. All image acquisition and quantification were performed in a blind manner. For in vitro quantification of dendrite degeneration, Neurolucida (MBF Biosciences) in the manual mode was used to measure the total dendritic length, numbers of dendrites, and dendritic complexity for each neuron.

[2] = tested on: 14 DIV hippocampal neurons; assay: oTau-induced dendrite degeneration (MAP2 dendrite length, number) in cultured hippocampal neurons; assay type: cell-based, mouse; conditions: oTau 50 nM + inhibitor 24 h vs oTau alone, NVS-PAK1-1 10 nM, AZ 1 nM, G 5 nM; for total dendrite length per neuron: PAK1-C 10 nM
Protocol: as §1, §2, §3
(§4) For quantification of drebrin‐positive spines in vitro, the images were analyzed using Imaris 9.3 software. Each image consisted of one major neuron and the “filaments” option in Imaris was applied to manually trace along the dendrites of every neuron, by placing starting and seed points at the beginning and along the length of the dendrites, respectively. The largest dendrite diameter (i.e., Starting Point) was set at 9.00 µm threshold while the thinnest dendrite diameter (i.e., Seed Point) was set at 1.00 µm threshold. After manually tracing the dendrites, the spines along the dendrites were assessed using the automatic “spine detection” function in Imaris. The thinnest spine diameter was set at 0.80 µm threshold while the maximum spine length was set at 5.00 µm. The spine density (number of spines/dendrite length) was then calculated for each neuron. All image acquisition and quantification were performed in a blind manner. For in vitro quantification of dendrite degeneration, Neurolucida (MBF Biosciences) in the manual mode was used to measure the total dendritic length, numbers of dendrites, and dendritic complexity for each neuron.

[3] = tested on: 14 DIV mouse hippocampal neurons; assay: oTau-induced spine loss: drebrin-positive spine density in cultured hippocampal neurons; assay type: cell-based; conditions: oTau 50 nM + inhibitor 24 h vs oTau alone; NVS-PAK1-1 10 nM, NVS-PAK1-C 10 nM, AZ13705339 1 nM, G5555 5 nM
Protocol: as §1, §2
The cultured hippocampal neurons were imaged using an oil‐based 63x objective on a Leica Stellaris 5 confocal microscope. The cell nucleus was stained with DAPI and imaged at a wavelength of 405 nm (blue channel), the dendrites stained by MAP2 were imaged at 488 nm wavelength (green channel), and the drebrin‐stained spines were imaged at a wavelength of 561 nm (red channel). […] The number of steps for every z‐stack picture of a neuron were determined by the size of the neuron in the z‐plane, to ensure that the entirety of a neuron is captured in the picture. […]
For quantification of drebrin‐positive spines in vitro, the images were analyzed using Imaris 9.3 software. […] After manually tracing the dendrites, the spines along the dendrites were assessed using the automatic “spine detection” function in Imaris. […] The spine density (number of spines/dendrite length) was then calculated for each neuron. All image acquisition and quantification were performed in a blind manner. For in vitro quantification of dendrite degeneration, Neurolucida (MBF Biosciences) in the manual mode was used to measure the total dendritic length, numbers of dendrites, and dendritic complexity for each neuron.

[4] = tested on: kinome; broad panel of proteases, receptors, and bromodomains; conditions: cited from earlier work
[5] = tested on: 14 DIV hippocampal neurons; assay: oAβ-induced dendrite degeneration (MAP2 dendrite length, number, complexity) in cultured hippocampal neurons; assay type: cell-based, mouse; conditions: oAβ 1 µM + inhibitor 24 h vs oAβ alone, NVS-PAK1-1 10 nM, AZ 1 nM, G 5 nM; for total dendrite length per neuron: PAK1-C 10 nM
Protocol: as §1, §2, §3, §4

| SMILES | drebrin-stained spine density (spine counts per µm of dendritic length) [1] | dendrite number per neuron [2] | total dendrite length per neuron [2] | drebrin-stained spine density (spine counts per µm of dendritic length) [3] | off-target kinase inhibition [4] | dendrite number per neuron [5] | total dendrite length per neuron [5] |
| --- | --- | --- | --- | --- | --- | --- | --- |
| CCS(=O)(=O)c1cc(Nc2ncc(F)c(N(Cc3ccccc3C#N)c3cc(CO)ccc3C)n2)ccc1N1CCN(C)CC1 [AZ13705339] | significantly higher spine counts | significantly increased dendrite number per neuron | preserved dendrite length | significantly higher spine counts | inhibit off‐target kinases | significantly increased dendrite number per neuron | preserved dendrite length |
| CNc1ncc2cc(-c3ccc(-c4cccc(C)n4)cc3Cl)c(=O)n(C[C@H]3OC[C@H](N)CO3)c2n1 [G5555] | significantly higher spine counts | significantly increased dendrite number per neuron | Neither G nor PAK1‐C showed a significant dendrite length difference | significantly higher spine counts | inhibit off‐target kinases | significantly increased dendrite number per neuron | Neither G nor PAK1‐C showed a significant dendrite length difference |
| CN(C)C(=O)N1CC[C@H](N=C2Nc3cc(F)ccc3N(CC(F)F)c3ccc(Cl)cc32)C1 [NVS‐PAK1‐C] | not reflected |  | Neither G nor PAK1‐C showed a significant dendrite length difference | not reflected |  |  | Neither G nor PAK1‐C showed a significant dendrite length difference |
